Laboratory results taken from patent US4305940A, “Benzamides with local anaesthetic and antiarrhythmic activity, salts, and method of preparation thereof and pharmaceutical compositions therefrom” (B.B.R. Boehringer Biochemia Robin S.p.A., priority 1979, dated 1981).
Structures can show the parent of a compound that is named as a salt.

Tests used:
Swiss rats = experiment: in vivo; conditions: lidocaine = 1
From the text: (§1) The behavior of the animals has then been followed for a period of five days. The DL50 has been determined according to the method of I. T. Litchfield and F. Wilcoxon, (J. Pharmacol. Exper. Ther., 96, 99, 1949). The compound numbers in Table II correspond to the numbers in Table I.

in vivo = conditions: rat, in vivo, ip; 5 days; hydrochloride salts; range in parentheses; read-out: DL50 i.p.
From the text: as §1

[1] = system: response to skin puncture; experiment: Anaesthesia by infiltration (subcutaneous, back puncture); assay type: in vivo, guinea pigs; conditions: for Infiltration anaesthesia DL50/CE50: analogous to therapeutic index, DL50 i.p.; for Infiltration anaesthesia CE50: concentration in percent achieving 50% of total responses, hydrochloride salts; for Infiltration anaesthesia DL50/CE50 relative to lidocaine / Infiltration anaesthesia activity with respect to lidocaine: lidocaine = 1
Protocol: The anaesthesia by infiltration has been determined in guinea pigs according to the method of E. Bulbring and I. Wajda, (Journal of Pharmacol. Exper. Ther. 85, 78, 1945). In each experiment, four doses of the substance in 0.25 cc of physiological saline solution is injected subcutaneously on the back after removal of hair. After five minutes, each animal is punctured six times at intervals of […].
The test was repeated every five minutes for a period of 30 minutes. The extent of anaesthesia by infiltration was measured quantitatively by determining the sum of the instances in which the animal remained immobile during the thirty minute period on 36 possible blinks.

[2] = system: reflux of contraction of the lower limbs (lumbar plexus); experiment: Anaesthesia by conduction (lumbar plexus); assay type: in vivo, frogs; conditions: for Conduction anaesthesia DL50/t' / Conduction anaesthesia 1/t'max. (c = 1%) with respect to lidocaine: c = 1%; for Conduction anaesthesia DL50/t': DL50 i.p.; for Conduction anaesthesia 1/t'max. (c = 1%) with respect to lidocaine / Conduction anaesthesia DL50/t' relative to lidocaine: lidocaine = 1
From the text: Anaesthesia by conduction has been determined on frogs according to the method of E. Bulbring and I. Wajda (Journal Pharmacol. Exper. Ther., 85, 78, 1945). The compounds dissolved in physiological saline solution are introduced into the cavity obtained by a transversal incision in the abdomen and separating the viscera in order to expose the lumbar plexus. The period of time necessary to eliminate the reflux of contraction of the lower limbs stimulated by immersion of both posterior legs into hydrochloric acid of increasing concentration between 0.05-0.1-0.2 N for a period not in excess of ten seconds, at intervals of one minute is determined. The extent of anaesthesia of conduction has been determined by measuring the period of time required for each compound in three different concentrations, 0.2%-0.5%-1.0% in order to abolish the reflex of contraction with the concentration of hydrochloric acid indicated hereinabove.

corneal reflux = experiment: Surface anaesthesia (corneal reflux, conjunctival sac); conditions: for Surface anaesthesia DL50/CE50: analogous to therapeutic index, DL50 i.p.; for Surface anaesthesia CE50: concentration in percent achieving 50% of total responses, pH 7 saline, hydrochloride salts; for Surface anaesthesia activity with respect to lidocaine: lidocaine = 1
Protocol: (§2) The data reported hereinbelow relate in every instance to the hydrochloride salts of the individual compounds.
The surface anaesthesia has been determined in rabbits according to the method of M. R. A. Change and H. Lobstein (J. Pharmacol. Exper. Ther., 82, 203, 1944). The compounds dissolved in physiological saline solution of pH 7 were injected into the conjunctival sac and the corneal reflux was induced with the brush of Frey six times at intervals of five minutes for a total period of 40 minutes.

[3] = system: aconitine-induced ventricular arrhythmia; experiment: Anti-arrhythmic activity, aconitine infusion; assay type: in vivo, Wistar rats; conditions: 3 min before aconitine 10 mcg/kg/min
Protocol: as §2
This determination has been made in Wistar rats, anaesthetized with ethylurethane, (1 g/kg i.p.), according to the method of B. Vargaftig and J. L. Coigner (European Journal Pharmacology, 6, 49, 1969). The compounds dissolved in physiological saline solution, are injected intravenously three minutes prior to the infusion of aconitine, (10 mcg/kg/min.). The extent of anti-arrhythmic activity is determined quantitatively by determining the amount of aconitine necessary to induce ventricular arrhythmia.

Row | Compound | DL50 i.p. relative to lidocaine (Swiss rats) | LD50 at 120 h (in vivo) | Infiltration anaesthesia DL50/CE50 [1] | Infiltration anaesthesia CE50 [1] | Infiltration anaesthesia DL50/CE50 relative to lidocaine [1] | Infiltration anaesthesia activity with respect to lidocaine [1] | Conduction anaesthesia DL50/t' [2] | Conduction anaesthesia 1/t'max. (c = 1%) with respect to lidocaine [2] | Conduction anaesthesia DL50/t' relative to lidocaine [2] | Surface anaesthesia DL50/CE50 (corneal reflux) | Surface anaesthesia CE50 (corneal reflux) | Surface anaesthesia activity with respect to lidocaine (corneal reflux) | Aconitine i.v. necessary to induce ventricular arrhythmia ([3]; 10.0 mg/kg i.v.) | Aconitine i.v. necessary to induce ventricular arrhythmia ([3]; 40.0 mg/kg i.v.) | Aconitine i.v. necessary to induce ventricular arrhythmia ([3]; 12.5 mg/kg i.v.) | Aconitine i.v. necessary to induce ventricular arrhythmia ([3]; 25.0 mg/kg i.v.)
1 | Cc1cccc(C)c1NC(=O)c1ccc(CN2CCOCC2)cc1 [Compound 12] | 1.62 | 230 mg/kg | 102 | 2.25% | 0.54 | 0.33 | 57 | 2.7 | 4.46 | 82 | 2.82% | 0.82 |  |  |  | 
2 | C=C[C@H]1C[N@@]2CC[C@H]1C[C@@H]2[C@@H](O)c1ccnc2ccc(OC)cc12 [Quinidine sulfate, reference compound] |  |  |  |  |  |  |  |  |  |  |  |  | 50 ± 3 µg/kg | 88 ± 11 µg/kg |  | 
3 | Cc1cccc(C)c1NC(=O)c1cccc(CN2CCCC2)c1 [Compound 5] | 1.58 | 225 mg/kg | 28 | 8.01% | 0.15 | 0.09 | 225 | 11.1 | 17.31 | 9 | 24.12% | 0.09 |  |  |  | 
4 | CCN(CC)CC(=O)Nc1c(C)cccc1C [Lidocaine hydrochloride, reference compound] |  |  |  |  |  |  |  |  |  |  |  |  |  |  | 41 ± 4 µg/kg | 54 ± 5 µg/kg
5 | Cc1cccc(C)c1NC(=O)c1ccccc1CN1CCCCC1 [Compound 7] | 0.61 | 87.1 mg/kg | 414 | 0.21% | 2.19 | 3.57 | 87 | 11.1 | 6.69 | 290 | 0.30% | 7.66 |  |  |  | 
6 | Cc1cccc(C)c1NC(=O)c1ccccc1CN1CCOCC1 [Compound 10] | 1.62 | 230 mg/kg | 98 | 2.34% | 0.52 | 0.32 | 21 | 1.0 | 1.61 | 34 | 6.86% | 0.34 |  |  |  | 
7 | Cc1cccc(C)c1NC(=O)c1ccccc1CN1CCCC1 [Compound 4] | 0.39 | 55 mg/kg | 162 | 0.34% | 0.86 | 2.20 | 55 | 11.1 | 4.23 | 30 | 1.85% | 1.24 |  |  |  | 
8 | Cc1cccc(C)c1NC(=O)c1ccc(CN2CCCC2)cc1 [Compound 6] | 1.51 | 215 mg/kg | 48 | 4.50% | 0.25 | 0.16 | 107 | 5.5 | 8.31 | 13 | 16.03% | 0.14 |  |  |  | 
